In patent US20240116985A1, “STAPLED PEPTIDES AND METHODS THEREOF” (priority 2020, published 2024):

Target: T1, full-length beta-Catenin (Uniprot ID P35222) (Homo sapiens, UniProt P35222)
T1 construct: 10 nM full-length beta-Catenin (Uniprot ID P35222)
T1 sequence (P35222 1-781): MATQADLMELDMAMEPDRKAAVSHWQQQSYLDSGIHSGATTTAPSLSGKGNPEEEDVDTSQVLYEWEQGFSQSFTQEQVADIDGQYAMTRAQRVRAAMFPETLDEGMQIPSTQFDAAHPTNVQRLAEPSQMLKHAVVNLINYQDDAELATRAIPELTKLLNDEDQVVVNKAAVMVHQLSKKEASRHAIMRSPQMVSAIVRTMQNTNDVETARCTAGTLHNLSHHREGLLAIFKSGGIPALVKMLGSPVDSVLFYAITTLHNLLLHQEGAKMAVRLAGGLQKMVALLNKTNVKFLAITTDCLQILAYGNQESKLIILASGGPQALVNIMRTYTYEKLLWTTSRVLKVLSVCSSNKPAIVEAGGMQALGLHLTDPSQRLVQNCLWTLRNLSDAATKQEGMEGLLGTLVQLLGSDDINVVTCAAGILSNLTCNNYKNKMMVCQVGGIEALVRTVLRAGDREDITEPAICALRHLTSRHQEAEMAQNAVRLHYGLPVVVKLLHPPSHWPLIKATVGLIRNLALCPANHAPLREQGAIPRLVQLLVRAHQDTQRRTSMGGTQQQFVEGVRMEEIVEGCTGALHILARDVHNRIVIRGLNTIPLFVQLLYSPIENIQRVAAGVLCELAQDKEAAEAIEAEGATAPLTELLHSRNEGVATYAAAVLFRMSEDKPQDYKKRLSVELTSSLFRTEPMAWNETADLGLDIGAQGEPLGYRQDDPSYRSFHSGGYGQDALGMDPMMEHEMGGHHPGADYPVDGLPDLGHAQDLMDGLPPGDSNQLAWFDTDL
Assay: Fluorescence polarization IC50 (beta-catenin / 5FAM-TCF4 10-53 competition)
Type: binding
Conditions: fluorescence polarization; read-out: beta-Catenin FP IC50

SMILES | IC50 [nM]
CC(=O)N1CCC[C@]12CC=CCCCC1(CCCC=CCCCOC(=O)N3CC[C@@](C(=O)N[C@@H](Cc4ccccc4)C(=O)N[C@@H](Cc4csc5ccccc45)C(=O)N[C@@H](CCC(N)=O)C(N)=O)(C3)NC(=O)[C@H](CC(N)=O)NC(=O)[C@H](Cc3ccccc3)NC(=O)[C@H](C)NC(=O)[C@H](C)NC(=O)[C@H]([C@@H](C)O)NC(=O)[C@H](CC(N)=O)NC1=O)NC(=O)[C@H](CC(C)(C)C)NC(=O)[C@H](CC(=O)O)NC2=O (stereo partly drawn) [I-1735, Ac-PL3-Asp-Npg-B5-Asn-Thr-Ala-Ala-Phe-Asn-PyrS2-Phe-BztA-Gln-NH2] | 667
CC(=O)N1CCC[C@]12CC=CCCCC1(CCCC=CCCCOC(=O)N3CC[C@@](C(=O)N[C@@H](Cc4ccccc4C(F)(F)F)C(=O)N[C@@H](Cc4csc5ccccc45)C(=O)N[C@@H](CCC(N)=O)C(N)=O)(C3)NC(=O)[C@H](CC(N)=O)NC(=O)[C@H](Cc3ccccc3)NC(=O)[C@H](C)NC(=O)[C@H](C)NC(=O)[C@H]([C@@H](C)O)NC(=O)[C@H](CC(N)=O)NC1=O)NC(=O)[C@H](CC(C)(C)C)NC(=O)[C@H](CC(=O)O)NC2=O (stereo partly drawn) [I-1738, Ac-PL3-Asp-Npg-B5-Asn-Thr-Ala-Ala-Phe-Asn-PyrS2-2F3MeF-BztA-Gln-NH2] | 1060
CC(=O)N1CCC[C@]12CC=CCCCC1(CCCC=CCCCOC(=O)N3CC[C@@](C(=O)N[C@@H](Cc4cccc(C)c4)C(=O)N[C@@H](Cc4csc5ccccc45)C(=O)N[C@@H](CCC(N)=O)C(N)=O)(C3)NC(=O)[C@H](CC(N)=O)NC(=O)[C@H](Cc3ccccc3)NC(=O)[C@H](C)NC(=O)[C@H](C)NC(=O)[C@H]([C@@H](C)O)NC(=O)[C@H](CC(N)=O)NC1=O)NC(=O)[C@H](CC(C)(C)C)NC(=O)[C@H](CC(=O)O)NC2=O (stereo partly drawn) [I-1739, Ac-PL3-Asp-Npg-B5-Asn-Thr-Ala-Ala-Phe-Asn-PyrS2-3MeF-BztA-Gln-NH2] | 3650
CC(=O)N1CCC[C@]12CC=CCCCC1(CCCC=CCCCOC(=O)N3CC[C@@](C(=O)N[C@@H](Cc4ccsc4)C(=O)N[C@@H](Cc4csc5ccccc45)C(=O)N[C@@H](CCC(N)=O)C(N)=O)(C3)NC(=O)[C@H](Cc3c[nH]c4ccccc34)NC(=O)[C@H](Cc3ccccc3)NC(=O)[C@H](C)NC(=O)[C@H](C)NC(=O)[C@H]([C@@H](C)O)NC(=O)[C@H](CC(N)=O)NC1=O)NC(=O)[C@H](CC(C)(C)C)NC(=O)[C@H](CC(=O)O)NC2=O (stereo partly drawn) [I-1741, Ac-PL3-Asp-Npg-B5-Asn-Thr-Ala-Ala-Phe-Trp-PyrS2-3Thi-BztA-Gln-NH2] | 4390
CC(=O)N1CCC[C@]12CC=CCCCC1(CCCC=CCCCOC(=O)N3CC[C@@](C(=O)N[C@@H](Cc4ccsc4)C(=O)N[C@@H](Cc4csc5ccccc45)C(N)=O)(C3)NC(=O)[C@H](CC(N)=O)NC(=O)[C@H](Cc3ccccc3)NC(=O)[C@H](C)NC(=O)[C@H](C)NC(=O)[C@H]([C@@H](C)O)NC(=O)[C@H](CC(N)=O)NC1=O)NC(=O)[C@H](CC(C)(C)C)NC(=O)[C@H](CC(=O)O)NC2=O (stereo partly drawn) [I-1742, Ac-PL3-Asp-Npg-B5-Asn-Thr-Ala-Ala-Phe-Asn-PyrS2-3Thi-BztA-NH2] | 867

Now those with a lower IC50, led by results:

IC50 [nM] | SMILES
518 | CC(=O)N1CCC[C@]12CC=CCCCC1(CCCC=CCCCOC(=O)N3CC[C@@](C(=O)N[C@@H](Cc4ccccc4C)C(=O)N[C@@H](Cc4csc5ccccc45)C(=O)N[C@@H](CCC(N)=O)C(N)=O)(C3)NC(=O)[C@H](CC(N)=O)NC(=O)[C@H](Cc3ccccc3)NC(=O)[C@H](C)NC(=O)[C@H](C)NC(=O)[C@H]([C@@H](C)O)NC(=O)[C@H](CC(N)=O)NC1=O)NC(=O)[C@H](CC(C)(C)C)NC(=O)[C@H](CC(=O)O)NC2=O (stereo partly drawn) [I-1737, Ac-PL3-Asp-Npg-B5-Asn-Thr-Ala-Ala-Phe-Asn-PyrS2-2MeF-BztA-Gln-NH2]
469 | CC(=O)N1CCC[C@]12CC=CCCCC1(CCCC=CCCCOC(=O)N3CC[C@@](C(=O)N[C@@H](Cc4ccsc4)C(=O)N[C@@H](Cc4csc5ccccc45)C(=O)N[C@@H](CCCNC(=N)N)C(N)=O)(C3)NC(=O)[C@H](CC(N)=O)NC(=O)[C@H](Cc3ccccc3)NC(=O)[C@H](C)NC(=O)[C@H](C)NC(=O)[C@H]([C@@H](C)O)NC(=O)[C@H](CC(N)=O)NC1=O)NC(=O)[C@H](CC(C)(C)C)NC(=O)[C@H](CC(=O)O)NC2=O (stereo partly drawn) [I-1743, Ac-PL3-Asp-Npg-B5-Asn-Thr-Ala-Ala-Phe-Asn-PyrS2-3Thi-BztA-Arg-NH2]
458 | CC(=O)N1CCC[C@]12CC=CCCCC1(CCCC=CCCCOC(=O)N3CC[C@@](C(=O)N[C@@H](Cc4cccs4)C(=O)N[C@@H](Cc4csc5ccccc45)C(=O)N[C@@H](CCC(N)=O)C(N)=O)(C3)NC(=O)[C@H](CC(N)=O)NC(=O)[C@H](Cc3ccccc3)NC(=O)[C@H](C)NC(=O)[C@H](C)NC(=O)[C@H]([C@@H](C)O)NC(=O)[C@H](CC(N)=O)NC1=O)NC(=O)[C@H](CC(C)(C)C)NC(=O)[C@H](CC(=O)O)NC2=O (stereo partly drawn) [I-1736, Ac-PL3-Asp-Npg-B5-Asn-Thr-Ala-Ala-Phe-Asn-PyrS2-2Thi-BztA-Gln-NH2]
402 | CC(=O)N1CCC[C@]12CC=CCCCC1(CCCC=CCCCOC(=O)N3CC[C@@](C(=O)N[C@@H](Cc4ccsc4)C(=O)N[C@@H](Cc4csc5ccccc45)C(=O)N[C@H](C(N)=O)[C@@H](C)O)(C3)NC(=O)[C@H](CC(N)=O)NC(=O)[C@H](Cc3ccccc3)NC(=O)[C@H](C)NC(=O)[C@H](C)NC(=O)[C@H]([C@@H](C)O)NC(=O)[C@H](CC(N)=O)NC1=O)NC(=O)[C@H](CC(C)(C)C)NC(=O)[C@H](CC(=O)O)NC2=O (stereo partly drawn) [I-1745, Ac-PL3-Asp-Npg-B5-Asn-Thr-Ala-Ala-Phe-Asn-PyrS2-3Thi-BztA-Thr-NH2]
363 | CC(=O)N1CCC[C@]12CC=CCCCC1(CCCC=CCCCOC(=O)N3CC[C@@](C(=O)N[C@@H](Cc4ccsc4)C(=O)N[C@@H](Cc4csc5ccccc45)C(=O)N[C@@H](Cc4ccccc4)C(N)=O)(C3)NC(=O)[C@H](CC(N)=O)NC(=O)[C@H](Cc3ccccc3)NC(=O)[C@H](C)NC(=O)[C@H](C)NC(=O)[C@H]([C@@H](C)O)NC(=O)[C@H](CC(N)=O)NC1=O)NC(=O)[C@H](CC(C)(C)C)NC(=O)[C@H](CC(=O)O)NC2=O (stereo partly drawn) [I-1744, Ac-PL3-Asp-Npg-B5-Asn-Thr-Ala-Ala-Phe-Asn-PyrS2-3Thi-BztA-Phe-NH2]
235 | CC(=O)N1CCC[C@]12CC=CCCCC1(CCCC=CCCCOC(=O)N3CC[C@@](C(=O)N[C@@H](Cc4ccsc4)C(=O)N[C@@H](Cc4csc5ccccc45)C(=O)N[C@@H](CC(N)=O)C(N)=O)(C3)NC(=O)[C@H](CC(N)=O)NC(=O)[C@H](Cc3ccccc3)NC(=O)[C@H](C)NC(=O)[C@H](C)NC(=O)[C@H]([C@@H](C)O)NC(=O)[C@H](CC(N)=O)NC1=O)NC(=O)[C@H](CC(C)(C)C)NC(=O)[C@H](CC(=O)O)NC2=O (stereo partly drawn) [I-1746, Ac-PL3-Asp-Npg-B5-Asn-Thr-Ala-Ala-Phe-Asn-PyrS2-3Thi-BztA-Asn-NH2]
38 | CC(=O)N1CCC[C@]12CC=CCCCC1(CCCC=CCCCOC(=O)N3CC[C@@](C(=O)N[C@@H](Cc4ccsc4)C(=O)N[C@@H](Cc4csc5ccccc45)C(=O)N[C@@H](CCC(N)=O)C(N)=O)(C3)NC(=O)[C@H](CC(C)C)NC(=O)[C@H](Cc3ccccc3)NC(=O)[C@H](C)NC(=O)[C@H](C)NC(=O)[C@H](CN(CC(=O)O)C(=O)C(F)(F)F)NC(=O)[C@H](CC(=O)O)NC1=O)NC(=O)[C@H](CC(C)(C)C)NC(=O)[C@H](CC(=O)O)NC2=O (stereo partly drawn) [I-1730, Ac-PL3-Asp-Npg-B5-Asp-[CF3CO]GA-Ala-Ala-Phe-Leu-PyrS2-3Thi-BztA-Gln-NH2]
